Patent US20040133938A1, “Use of lipoic acid in plant culture media” (priority 2002, published 2004)

System: A3244 soybean seed axis explants
Assay: Soybean Agrobacterium transformation, lipoic acid in co-culture media
Assay type: cell-based
Experimental: Dry A3244 soybean seeds were germinated by soaking in sterile distilled water (SDW) for three minutes, drained and allowed to slowly imbibe for 2 hours at which time Bean Germination Media (BGM) was added. At approximately 12 hours, seed axis explants were isolated by removing seed coats and cotyledons. Inoculation occurred 14 hours after the addition of SDW.
Explants were placed into sterile Plantcons™ with 20 mL of pMON15737/ABI (FIG. 3) and resuspended to an optical density A660 of approximately 0.3 in 1/10 Gamborg's B5 media (Gamborg et al., Exp. Cell Res., 50:151-158, 1968) containing 3% glucose, 1.68 mg/L BAP, 3.9 g/L MES, […] acetosyringone, 1 mM galactronic acid, and 0.25 mg/L GA3. Each Plantcon™ was sonicated for 20 seconds in a L&R Quantrex S140 sonicator that contained SDW+0.1% Triton X100 in the bath. Plantcons™ were held in place at approximately 2.5 cm below the surface of the bath liquid. Following sonication, explants were inoculated for an additional hour while shaking gently on an orbital shaker at ˜90 RPM. After inoculation, the Agrobacterium was removed. […] Co-culture media consisted of 1/10 Gamborg's B5 media containing 5% glucose, 1.68 mg/L BAP, 3.9 g/L, […] acetosyringone, 1 mM galactronic acid and 0.25 mg/L GA3. Explants were incubated at 23° C. in the dark for 3 days.
Lipoic acid was dissolved in either ethanol or potassium hydroxide to make 100 mg/mL stock. […]
Following co-culture, explants were transferred to solid Woody Plant Media (WPM) (McCown & Lloyd, Proc. International Plant Propagation Soc., 30:421, 1981) containing 2% sucrose, 200 mg/L carbenicillin, 100 mg/L Timetin (ticarcillin+clavulanic acid), +/−100 mg/L cefotaxime, 60 mg/L Benomyl, and 75 μM glyphosate. All explants were placed at 28° C., 16-hour light/8-hour dark photoperiod. A second transfer to the same media was made after two weeks.
Shoots were cut 5-8 weeks post-inoculation and rooted on Bean Rooting Media (BRM) containing 25 μM glyphosate and 100 mg/L Timetin.

[1] = 5 uM LA, KOH, 248 explants, Table 12
[2] = 5 uM LA, 244 explants, Table 12
[3] = 10 uM LA, KOH, 240 explants, Table 12
[4] = 10 uM LA, 247 explants, Table 12
[5] = 50 uM LA, KOH, 246 explants, Table 12
[6] = 50 uM LA, 242 explants, Table 12
[7] = 100 uM LA, KOH, 246 explants, Table 12
[8] = 100 uM LA, 396 explants, Table 12
[9] = 250 uM LA, KOH, 505 explants, Table 11
[10] = 250 uM LA, 246 explants, Table 12
[11] = 250 uM LA, 486 explants, Table 11
[12] = 500 uM LA*, 171 explants, Table 12
[13] = 500 uM LA, KOH, 462 explants, Table 11
[14] = 500 uM LA, 531 explants, Table 11
[15] = 750 uM LA, KOH, 454 explants, Table 11
[16] = 750 uM LA, 535 explants, Table 11
[17] = 1000 uM LA, KOH, 471 explants, Table 11
[18] = 1000 uM LA, 530 explants, Table 11
[19] = 1500 uM LA, KOH, 498 explants, Table 11
[20] = 1500 uM LA, 538 explants, Table 11

SMILES: O=C(O)CCCCC1CCSS1 (centres unmarked) [lipoic acid, 1,2-dithiolane-3-pentanoic acid]
- Shooting Frequency [1]: 5%
- Total Rooted Plants [1]: 2
- Total Shoots [1]: 13
- Transformation Efficiency [1]: 0.8%
- Shooting Frequency [2]: 7%
- Total Rooted Plants [2]: 3
- Total Shoots [2]: 18
- Transformation Efficiency [2]: 1.2%
- Shooting Frequency [3]: 5%
- Total Rooted Plants [3]: 0
- Total Shoots [3]: 13
- Transformation Efficiency [3]: 0.0%
- Shooting Frequency [4]: 6%
- Total Rooted Plants [4]: 0
- Total Shoots [4]: 14
- Transformation Efficiency [4]: 0.0%
- Shooting Frequency [5]: 7%
- Total Rooted Plants [5]: 1
- Total Shoots [5]: 17
- Transformation Efficiency [5]: 0.4%
- Shooting Frequency [6]: 9%
- Total Rooted Plants [6]: 1
- Total Shoots [6]: 22
- Transformation Efficiency [6]: 0.4%
- Shooting Frequency [7]: 7%
- Total Rooted Plants [7]: 2
- Total Shoots [7]: 18
- Transformation Efficiency [7]: 0.8%
- Shooting Frequency [8]: 10%
- Total Rooted Plants [8]: 3
- Total Shoots [8]: 39
- Transformation Efficiency [8]: 0.8%
- Rooted Plants [9]: 13
- Shooting Frequency [9]: 12%
- Total Shoots [9]: 63
- Transformation Efficiency [9]: 2.6%
- Shooting Frequency [10]: 13%
- Total Rooted Plants [10]: 9
- Total Shoots [10]: 32
- Transformation Efficiency [10]: 3.7%
- Rooted Plants [11]: 7
- Shooting Frequency [11]: 14%
- Total Shoots [11]: 69
- Transformation Efficiency [11]: 1.4%
- Shooting Frequency [12]: 11%
- Total Rooted Plants [12]: 5
- Total Shoots [12]: 19
- Transformation Efficiency [12]: 2.9%
- Rooted Plants [13]: 7
- Shooting Frequency [13]: 10%
- Total Shoots [13]: 44
- Transformation Efficiency [13]: 1.5%
- Rooted Plants [14]: 9
- Shooting Frequency [14]: 12%
- Total Shoots [14]: 64
- Transformation Efficiency [14]: 1.7%
- Rooted Plants [15]: 7
- Shooting Frequency [15]: 12%
- Total Shoots [15]: 56
- Transformation Efficiency [15]: 1.5%
- Rooted Plants [16]: 9
- Shooting Frequency [16]: 12%
- Total Shoots [16]: 62
- Transformation Efficiency [16]: 1.7%
- Rooted Plants [17]: 6
- Shooting Frequency [17]: 8%
- Total Shoots [17]: 40
- Transformation Efficiency [17]: 1.3%
- Rooted Plants [18]: 12
- Shooting Frequency [18]: 10%
- Total Shoots [18]: 52
- Transformation Efficiency [18]: 2.3%
- Rooted Plants [19]: 10
- Shooting Frequency [19]: 11%
- Total Shoots [19]: 57
- Transformation Efficiency [19]: 2.0%
- Rooted Plants [20]: 13
- Shooting Frequency [20]: 10%
- Total Shoots [20]: 53
- Transformation Efficiency [20]: 2.4%
- increase of transformation frequency (lipoic acid concentration of 250 μM): about ninefold
- effect on transformation efficiency, shoot and rooted plant production (lipoic acid concentrations of 250 μM to 1500 μM): increased transformation efficiency
- effectiveness in the soybean transformation protocol (low levels of lipoic acid (5 to 100 μM)): not particularly effective
